From patent US8815849B2, “Hetero-bicyclic derivatives as HCV inhibitors” (Janssen R&D Ireland, priority 2010, dated 2014)
Like-named read-outs stand apart in the source and are kept apart here. Each block holds one molecule with its values, some of them ahead of it.

Key:
[1] = test system: HCV replicon (Huh-Luc cells, NS3-NS5B regions of HCV type 1b); assay: HCV replicon assay (Huh-7 luc/neo, luciferase readout); format: cell-based; conditions: Huh-Luc replicon cells, three days incubation, luciferase activity, average if tested more than once, read-out: HCV-REP-HUH7LUC_EC50
Description: The in vitro antiviral activity against HCV of the compounds of formula I can be tested in a cellular HCV replicon system based on Lohmann et al. (1999) Science 285:110-113, with the further modifications described by Krieger et al. (2001) Journal of Virology 75: 4614-4624 (incorporated herein by reference), which is further exemplified in the examples section. This model, while not a complete infection model for HCV, is widely accepted as the most robust and efficient model of autonomous HCV RNA replication currently available. It will be appreciated that it is important to distinguish between compounds that specifically interfere with HCV functions from those that exert cytotoxic or cytostatic effects in the HCV replicon model, and as a consequence cause a decrease in HCV RNA or linked reporter enzyme concentration. Assays are known in the field for the evaluation of cellular cytotoxicity based for example on the activity of mitochondrial enzymes using fluorogenic redox dyes such as resazurin. Furthermore, cellular counter screens exist for the evaluation of non-selective inhibition of linked reporter gene activity, such as firefly luciferase. Appropriate cell types can be equipped by stable transfection with a luciferase reporter gene whose expression is dependent on a constitutively active gene promoter, and such cells can be used as a counter-screen to eliminate non-selective inhibitors.
The compounds of formula (I) were examined for inhibitory activity in the HCV replicon. This cellular assay is based on a bicistronic expression construct, as described by Lohmann et al. (1999) Science vol. 285 pp. 110-113 with modifications described by Krieger et al. (2001) Journal of Virology 75: 4614-4624, in a multi-target screening strategy.
The assay utilized the stably transfected cell line Huh-7 luc/neo (hereafter referred to as Huh-Luc). This cell line harbors an RNA encoding a bicistronic expression construct comprising the wild type NS3-NS5B regions of HCV type 1b translated from an
Internal Ribosome Entry Site (IRES) from encephalomyocarditis virus (EMCV), preceded by a reporter portion (FfL-luciferase), and a selectable marker portion (neo^R, neomycine phosphotransferase). The construct is flanked by 5′ and 3′ NTRs (non-translated regions) from HCV type 1b. Continued culture of the replicon cells in the presence of G418 (neo^R) is dependent on the replication of the HCV RNA. The stably transfected replicon cells that express HCV RNA, which replicates autonomously and to high levels, encoding inter alia luciferase, were used for screening the antiviral compounds.
The replicon cells were plated in 384 well plates in the presence of the test and control compounds which were added in various concentrations. Following an incubation of three days, HCV replication was measured by assaying luciferase activity (using standard luciferase assay substrates and reagents and a Perkin Elmer ViewLux™ ultraHTS microplate imager). Replicon cells in the control cultures have high luciferase expression in the absence of any inhibitor. The inhibitory activity of the compound on luciferase activity was monitored on the Huh-Luc cells, enabling a dose-response curve for each test compound. EC50 values were then calculated, which represent the amount of compound required to decrease the level of detected luciferase activity by 50%, or more specifically, to reduce the ability of the genetically linked HCV replicon RNA to replicate.
Where a compound of formula (I) was tested more than once in the replicon assay, the average of all test results is given in this Table 1.

LLC-MDR1 monolayers = format: in vitro ADME; conditions: pig, LLC-PK1, 120 min
Procedure: Assay Description for the Measurement of Transepithelial Transport of Test Compounds Through LLC-MDR1 Monolayers
The integrity of the cellular monolayer was assessed in each incubation well through the inclusion of the fluorescent, low permeability marker compound, Fluorescein.
In detail, LLC-MDR1 cells (LLC-PK1 cells stably transduced with MDR1 in a trans-well system) were seeded on 24-well cell culture inserts (Millicell®-PCF, 0.4 μm, 13 mm Ø, 0.7 cm^2) at 400 000 cells/cm^2. Cell culture medium consists of Medium 199 supplemented with 10% Fetal Bovine Serum (FBS) and 100 U/mL Penicillin/streptomycin and was replaced the day after seeding and the day before the experiment. The transport experiment was performed 5 days after seeding. On the day of the experiment, solutions of the test compounds were applied to the apical side of the monolayers to assess transport in the AtoB direction,. The medium used in the assay was (OPTI-MEM (1×) (GIBCO) with 1 w/v % Bovine Serum Albumin. Inserts were incubated at 37° C. in a humidified incubator containing 5% CO2. Samples from the acceptor and donor compartments were collected after an incubation time of 120 min, to assess the permeability and to allow estimation of the test compound recovery during the experiment, respectively. Transport experiments were performed in triplicate. Absolute test compound concentrations were measured using LC-MS/MS and quantified via a calibration curve.

SMILES: COC(=O)N[C@H](C(=O)N1CCCC1c1cc(=O)c2ccc(-c3ccc4cc(-c5cnc([C@@H]6CCCN6C(=O)[C@@H](NC(=O)OC)C(C)C)[nH]5)ccc4c3)cc2[nH]1)C(C)C (single isomer, unassigned) [Compound 13b]
EC50 ([1]; Hepatitis C virus, Huh-7, 72 h): 0.022 nM
A->B permeability (Papp × 10^−6 cm/sec) in the presence the P-gp inhibitor GF120918 (LLC-MDR1 monolayers): 0.5 10^−6 cm/sec

SMILES: COC(=O)N[C@H](C(=O)N1CCCC1c1[nH]c2cc(-c3ccc4cc(-c5cnc([C@@H]6CCCN6C(=O)[C@@H](NC(=O)OC)C(C)C)[nH]5)ccc4c3)ccc2c(=O)c1C)C(C)C (single isomer, unassigned) [Compound 102a]
EC50 ([1]; Hepatitis C virus, Huh-7, 72 h): 0.069 nM
A->B permeability (Papp × 10^−6 cm/sec) in the presence the P-gp inhibitor GF120918 (LLC-MDR1 monolayers): <0.6 10^−6 cm/sec

SMILES: COC(=O)N[C@H](C(=O)N1CCCC1c1[nH]c2cc(-c3ccc4cc(-c5cnc([C@@H]6CCCN6C(=O)[C@@H](NC(=O)OC)C(C)C)[nH]5)ccc4c3)ccc2c(=O)c1F)C(C)C (single isomer, unassigned) [Compound 110a]
EC50 [1]: 0.048 nM
A->B permeability (Papp × 10^−6 cm/sec) in the presence the P-gp inhibitor GF120918 (LLC-MDR1 monolayers): 0.4 10^−6 cm/sec

SMILES: COC(=O)N[C@H](C(=O)N1CCCC1c1[nH]c2cc(-c3ccc4cc(-c5cnc([C@@H]6CCCN6C(=O)[C@@H](NC(=O)OC)C(C)C)[nH]5)ccc4c3)ccc2c(=O)c1F)C(C)C (single isomer, unassigned) [Compound 110b]
EC50 [1]: 0.48 nM
A->B permeability (Papp × 10^−6 cm/sec) in the presence the P-gp inhibitor GF120918 (LLC-MDR1 monolayers): 2.3 10^−6 cm/sec

A->B permeability (Papp × 10^−6 cm/sec) in the presence the P-gp inhibitor GF120918 (LLC-MDR1 monolayers): 0.9 10^−6 cm/sec
SMILES: CC[C@H](C)[C@H](NC(=O)OC)C(=O)N1CCCC1c1cc(=O)c2ccc(-c3ccc4cc(-c5cnc([C@@H]6CCCN6C(=O)[C@@H](NC(=O)OC)C(C)C)[nH]5)ccc4c3)cc2[nH]1 (stereo partly drawn) [Compound 13-A3]

SMILES: COC(=O)N[C@H](C(=O)N1CCCC1c1cc(=O)c2cc(-c3ccc4cc(-c5cnc([C@@H]6CCCN6C(=O)[C@@H](NC(=O)OC)C(C)C)[nH]5)ccc4c3)ccc2[nH]1)C(C)C (stereo partly drawn) [Compound 22]
EC50 [1]: 0.075 nM

SMILES: COC(=O)N[C@H](C(=O)N1CCCC1c1cc(=O)c2cc(-c3ccc4cc(-c5cnc([C@@H]6CCCN6C(=O)[C@@H](NC(=O)OC)[C@@H](C)OC)[nH]5)ccc4c3)ccc2[nH]1)[C@@H](C)OC (stereo partly drawn) [Compound 23]
EC50 ([1]; Hepatitis C virus, Huh-7, 72 h): 0.47 nM

SMILES: COC(=O)N[C@H](C(=O)N1CCCC1c1cc(=O)c2cc(-c3ccc4cc(-c5cnc([C@@H]6CCCN6C(=O)[C@@H](NC(=O)OC)[C@@H](C)OC)[nH]5)ccc4c3)ccc2[nH]1)[C@@H](C)OC (stereo partly drawn) [Compound 23b]
EC50 [1]: 0.34 nM

SMILES: CC[C@H](C)[C@H](NC(=O)OC)C(=O)N1CCCC1c1cc(=O)c2cc(-c3ccc4cc(-c5cnc([C@@H]6CCCN6C(=O)[C@@H](NC(=O)OC)[C@@H](C)CC)[nH]5)ccc4c3)ccc2[nH]1 (stereo partly drawn) [Compound 24]
EC50 [1]: 0.048 nM

SMILES: COC(=O)N[C@H](C(=O)N1CCC[C@H]1c1ncc(-c2ccc3cc(-c4ccc5nc([C@@H]6CCCN6C(=O)[C@@H](NC(=O)OC)C(C)C)[nH]c(=O)c5c4)ccc3c2)[nH]1)C(C)C [Compound 35]
EC50 ([1]; Hepatitis C virus, Huh-7, 72 h): 0.64 nM
A->B permeability (Papp × 10^−6 cm/sec) in the presence the P-gp inhibitor GF120918 (LLC-MDR1 monolayers): 5.0 10^−6 cm/sec

SMILES: COC(=O)N[C@H](C(=O)N1CCC[C@H]1c1ncc(-c2ccc3cc(-c4ccc5c(=O)[nH]c([C@@H]6CCCN6C(=O)[C@H](NC(=O)OC(C)(C)C)c6ccccc6)nc5c4)ccc3c2)[nH]1)C(C)C [Compound 44-1]
EC50 ([1]; Hepatitis C virus, Huh-7, 72 h): 8.1 nM
A->B permeability (Papp × 10^−6 cm/sec) in the presence the P-gp inhibitor GF120918 (LLC-MDR1 monolayers): 2.7 10^−6 cm/sec

SMILES: COC(=O)N[C@H](C(=O)N1CCC[C@H]1c1ncc(-c2ccc3cc(-c4ccc5c(=O)[nH]c([C@@H]6CCCN6C(=O)[C@H](NC(=O)OC)c6ccccc6)nc5c4)ccc3c2)[nH]1)C(C)C [Compound 44-2]
EC50 ([1]; Hepatitis C virus, Huh-7, 72 h): 0.084 nM
A->B permeability (Papp × 10^−6 cm/sec) in the presence the P-gp inhibitor GF120918 (LLC-MDR1 monolayers): 5.5 10^−6 cm/sec

SMILES: COC(=O)N[C@H](C(=O)N1CCC[C@H]1c1ncc(-c2ccc3cc(-c4ccc5c(=O)[nH]c([C@@H]6CCCN6C(=O)[C@H](NC(=O)OC6CCCC6)c6ccccc6)nc5c4)ccc3c2)[nH]1)C(C)C [Compound 44-3]
EC50 ([1]; Hepatitis C virus, Huh-7, 72 h): 1 nM

SMILES: COC(=O)N[C@H](C(=O)N1CCC[C@H]1c1ncc(-c2ccc3cc(-c4ccc5c(=O)[nH]c([C@@H]6CCCN6C(=O)[C@H](NC(=O)OC6CCC6)c6ccccc6)nc5c4)ccc3c2)[nH]1)C(C)C [Compound 44-4]
EC50 ([1]; Hepatitis C virus, Huh-7, 72 h): 9.8 nM

SMILES: COC(=O)N[C@H](C(=O)N1CCC[C@H]1c1ncc(-c2ccc3cc(-c4ccc5c(=O)[nH]c([C@@H]6CCCN6C(=O)[C@@H](NC(=O)OC)C(C)C)nc5c4)ccc3c2)[nH]1)C(C)C [Compound 44]
EC50 ([1]; Hepatitis C virus, Huh-7, 72 h): 0.005 nM
A->B permeability (Papp × 10^−6 cm/sec) in the presence the P-gp inhibitor GF120918 (LLC-MDR1 monolayers): 6.9 10^−6 cm/sec

SMILES: COC(=O)N[C@H](C(=O)N1CCC[C@H]1c1ncc(-c2ccc3cc(-c4ccc5c(=O)[nH]c([C@@H]6CC(C)(C)CN6C(=O)[C@@H](NC(=O)OC)C(C)C)nc5c4)ccc3c2)[nH]1)C(C)C [Compound 50]
EC50 ([1]; Hepatitis C virus, Huh-7, 72 h): 0.006 nM
A->B permeability (Papp × 10^−6 cm/sec) in the presence the P-gp inhibitor GF120918 (LLC-MDR1 monolayers): 5.8 10^−6 cm/sec

SMILES: COC(=O)N[C@H](C(=O)N1CCC[C@H]1C1=Nc2cc(-c3ccc4cc(-c5cnc([C@@H]6CCCN6C(=O)[C@@H](NC(=O)OC)C(C)C)[nH]5)ccc4c3)ccc2C(C)(C)N1)C(C)C [Compound 61]
EC50 ([1]; Hepatitis C virus, Huh-7, 72 h): 0.017 nM
A->B permeability (Papp × 10^−6 cm/sec) in the presence the P-gp inhibitor GF120918 (LLC-MDR1 monolayers): 4.8 10^−6 cm/sec

SMILES: COC(=O)N[C@H](C(=O)N1CCC[C@H]1C1=Nc2cc(-c3ccc4cc(-c5cnc([C@@H]6CCCN6C(=O)[C@@H](NC(=O)OC)C(C)C)[nH]5)ccc4c3)ccc2C2(COC2)N1)C(C)C [Compound 70]
EC50 ([1]; Hepatitis C virus, Huh-7, 72 h): 0.009 nM
A->B permeability (Papp × 10^−6 cm/sec) in the presence the P-gp inhibitor GF120918 (LLC-MDR1 monolayers): 7.8 10^−6 cm/sec

SMILES: COC(=O)N[C@H](C(=O)N1CCCCC1c1cc(=O)c2ccc(-c3ccc4cc(-c5cnc([C@@H]6CCCN6C(=O)[C@@H](NC(=O)OC)C(C)C)[nH]5)ccc4c3)cc2[nH]1)C(C)C (stereo partly drawn) [Compound 76]
EC50 ([1]; Hepatitis C virus, Huh-7, 72 h): 0.034 nM
A->B permeability (Papp × 10^−6 cm/sec) in the presence the P-gp inhibitor GF120918 (LLC-MDR1 monolayers): 3.1 10^−6 cm/sec

SMILES: COC(=O)N[C@H](C(=O)N1CCC[C@H]1C1=NS(=O)(=O)c2ccc(-c3ccc4cc(-c5cnc([C@@H]6CCCN6C(=O)[C@@H](NC(=O)OC)C(C)C)[nH]5)ccc4c3)cc2N1)C(C)C [Compound 84]
EC50 ([1]; Hepatitis C virus, Huh-7, 72 h): 0.034 nM
A->B permeability (Papp × 10^−6 cm/sec) in the presence the P-gp inhibitor GF120918 (LLC-MDR1 monolayers): 0.4 10^−6 cm/sec

SMILES: COC(=O)N[C@H](C(=O)N1CCCC1c1cc(=O)c2ncc(-c3ccc4cc(-c5cnc([C@@H]6CCCN6C(=O)[C@@H](NC(=O)OC)C(C)C)[nH]5)ccc4c3)cc2[nH]1)C(C)C (stereo partly drawn) [Compound 97]
EC50 ([1]; Hepatitis C virus, Huh-7, 72 h): 0.24 nM

SMILES: COC(=O)N[C@H](C(=O)N1CCCC1c1[nH]c2cc(-c3ccc4cc(-c5cnc([C@@H]6CCCN6C(=O)[C@@H](NC(=O)OC)C(C)C)[nH]5)ccc4c3)ccc2c(=O)c1C)C(C)C (stereo partly drawn) [Compound 102b]
EC50 ([1]; Hepatitis C virus, Huh-7, 72 h): 20.6 nM

SMILES: COC(=O)N[C@H](C(=O)N1CCC[C@H]1c1ncc(-c2ccc3cc(-c4ccc5c(=O)cc(C6C[C@@H]7CCCC[C@@H]7N6C(=O)[C@@H](NC(=O)OC)C(C)C)[nH]c5c4)ccc3c2)[nH]1)C(C)C (stereo partly drawn) [Compound 119a]
EC50 ([1]; Hepatitis C virus, Huh-7, 72 h): 0.033 nM
